Data: article PMC9826068 (Chemistry (Weinheim an Der Bergstrasse, Germany), 2022)
Values after ≈ are worked out from the molar mass of the structure shown.

How the values were obtained:
[1] = Aqueous solubility; assay type: physicochemical; settings: aqueous medium at pH 7.4, pH 7.4, aqueous buffer
[2] = Distribution coefficient 1‐octanol / aqueous phosphate buffer; assay type: physicochemical; settings: pH 7.4

solubility [1] [µM]	logD [2]	Structure (SMILES)
3 (≈ 1.27 µg/mL)	–	O=C(NCc1cccc(CNC(=O)c2cc3ccccc3o2)c1)c1cc2ccccc2o1 [compound 28]
28 (≈ 11.1 µg/mL)	4.6	c1cc(CNCc2cc3ccccc3o2)cc(CNCc2cc3ccccc3o2)c1 [compound 29]
